Assay results: patent US8008230B2, “Synergistic antifungal DDAC compositions” (priority 2004, dated 2011)
Like-named read-outs stand apart in the source and are kept apart here.

Legend:
Botrytis cinerea = assay: Poison plate assay (MIC and synergy index); type: cell-based, Botrytis cinerea strain BC03019; details: 168 h
Description: Activity against fungal growth was determined with the poison plate assay. A calculated amount of a stock solution (containing either DDAC, boscalid, fenhexamid, pyrimethanil, thiophanate-methyl, triflumizole, azoxystrobin, dimoxystrobin, picoxystrobin, or pyraclostrobin in a concentration of 500 ppm in dimethyl sulfoxide) was pipetted into 24-well plates in order to reach a final test concentration ranging from 0.21 to 5 ppm in 12 steps when mixed with a culture medium. These culture media were either Glucose Agar (GA) (10 g glucose, 1.5 g K2HPO4, 2 g KH2PO4, 1 g (NH4)2SO4, 0.5 g MgSO4 and 12.5 g agar in 1 liter deionised water) when pyrimethanil was used as the test substance or Potato Dextrose Agar (PDA) (4 g potato infusion, 20 g bacto dextrose and 15 g bacto agar in 1 liter deionised water) for any of the other test substances. The medium was inoculated with 2 μl of a spore/mycelium suspension. The 24-well plates were kept in the dark at a temperature of 22° C., and a relative humidity of 75% and evaluated for fungal growth after one week.
The following fungi species were used in the poison plate assay: Penicillium digitatum strain Sas (sensitive to demethylase inhibiting fungicides), Penicillium digitatum strain LDW930223 (reduced sensitivity to demethylase inhibiting fungicides), Penicillium italicum strain H17 (reduced sensitivity to demethylase inhibiting fungicides), Botrytis cinerea strain BC03019, Geotrichum candidum, or Gloeosporium album strain A18.
The lowest concentration in ppm of each test compound or mixture of test compounds sufficient to inhibit visible growth was taken as the minimum inhibitory concentration (MIC). When no fungal growth was observed, the abbreviation “ng” was used in Table 2. Synergy was calculated using the Synergy Index method described by von Kull et al. (F. C. Kull, P. C. Eismann, H. D. Sylvestrowicz, R. L. Mayer, 1961, Applied Microbiology 9: 538-541).
Synergistic Index (SI)=(x/m)+(y/n) • m and n are the MIC values of test substances 1 and 2 respectively, when applied alone • x and y are the respective quantities of test substances 1 and 2 in mixtures which also cause the complete inhibition of fungal growth, i.e. x and y equal [quantity of test substances 1 and 2, resp., in the mixture (e.g. 0.8 and 0.2, 066 and 0.33 . . . )] multiplied by [MIC-value of the mixture]. […] A result smaller than 1 indicates a synergistic effect of the combination.

Penicillium digitatum = assay: Curative treatment by dipping of lemons artificially inoculated with Penicillium digitatum; type: in vivo; details: read-out: % Efficacy
Description: Aqueous test solutions were prepared with concentrations of 10 μg/ml, 100 μg/ml and 1000 μg/ml of DDAC (I); and 500 μg/ml of imazalil (II-a). These test solutions were used to prepare mixtures comprising component (I) and component (II-a) with a concentration respectively of 1000 μg/ml of (I) and 500 μg/ml of (II-a); 100 μg/ml of (I) and 500 μg/ml of (II-a) and 10 μg/ml of (I) and 500 μg/ml of (II-a).
Lemons were artificially inoculated with a 10 mm diameter cork borer dipped in a spore suspension containing 10^6 cfu/ml of Penicillium digitatum. The lemons were treated after 24 hours by submerging for 30 seconds in one of the test solutions.
Treated and untreated lemons were incubated for 14 days in a dark climate room at 20° C. After the incubation period, the diameter of fungal growth was measured and % efficacy (growth inhibition) versus control was calculated. Fungal growth was quantified by measuring the distance, in mm, between the perimeter of the 10 mm diameter inoculation ring and the perimeter of the damaged zone.
Synergy was considered to occur when the observed effect, or measured activity, of a combination of both components was greater than the corresponding Ec value.

[1] = % DDAC + % test substance 0 + 100 (test substance alone), Potato Dextrose Agar, one week, read-out: MIC (minimum inhibitory concentration in ppm total a.i.)

`CCCOC/C(=N\c1ccc(Cl)cc1C(F)(F)F)n1ccnc1` [triflumizole, (E)-4-chloro-α,α,α-trifluoro-N-(1-imidazol-1-yl-2-propoxyethylidene)-o-toluidine] was tested. Which MIC (Botrytis cinerea; read-out: MIC (minimum inhibitory concentration in ppm total a.i.), % DDAC + % test substance 0 + 100 (test substance alone), Potato Dextrose Agar, one week) did it give?
Its MIC is over 5 µg/mL.

Which MIC (Botrytis cinerea; [1]) does the source give for `CC1(C(=O)Nc2ccc(O)c(Cl)c2Cl)CCCCC1` [fenhexamid, 2′,3′-dichloro-4′-hydroxy-1-methylcyclohexanecarboxanilide] here?
Its MIC is 1.58 µg/mL.

`COC(=O)N(OC)c1ccccc1COc1ccn(-c2ccc(Cl)cc2)n1` [pyraclostrobin, methyl N-(2-[1-(4-chlorophenyl)-1H-pyrazol-3-yloxymethyl]phenyl](N-methoxy)carbamate] was tested. Which MIC (Botrytis cinerea; [1]) did it give?
The MIC was over 5 µg/mL.

`Cc1cc(C)nc(Nc2ccccc2)n1` [pyrimethanil, 4,6-dimethyl-N-phenyl-2-pyrimidinamine] was tested. Which MIC (Botrytis cinerea; % DDAC + % test substance 0 + 100 (test substance alone), Glucose Agar, one week, read-out: MIC (minimum inhibitory concentration in ppm total a.i.)) did it give?
The MIC was 2.11 µg/mL.

With `COC(=O)NC(=S)Nc1ccccc1NC(=S)NC(=O)OC` [thioph. methyl, 4,4′-(o-phenylene)bis(3-thioallophanate)] as the compound, how does the MIC (Botrytis cinerea; [1]) read?
Its MIC is 2.11 µg/mL.

`O=C(Nc1ccccc1-c1ccc(Cl)cc1)c1cccnc1Cl` [boscalid, 2-chloro-N-(4′-chlorobiphenyl-2-yl)-nicotinamide] was tested. Which MIC (Botrytis cinerea; [1]) did it give?
Its MIC is over 5 µg/mL.

For `CCCCCCCCCC[N+](C)(C)CCCCCCCCCC.[Cl-]` [DDAC, didecyl dimethyl ammonium chloride], which Emax at 10 µg/mL (Penicillium digitatum) is on record?
The Emax at 10 µg/mL was 0%.

And the Emax at 100 µg/mL (Penicillium digitatum)?
The Emax at 100 µg/mL was 0%.

What about the Emax at 1000 µg/mL (Penicillium digitatum) of the same compound?
Its Emax at 1000 µg/mL is 22%.

And the MIC (Botrytis cinerea; read-out: MIC (minimum inhibitory concentration in ppm total a.i.), % DDAC + % test substance 100 + 0 (DDAC alone), Glucose Agar (pyrimethanil series), one week)?
The MIC was 5 µg/mL.

And the MIC (Botrytis cinerea; read-out: MIC (minimum inhibitory concentration in ppm total a.i.), % DDAC + % test substance 100 + 0 (DDAC alone), Potato Dextrose Agar, one week)?
Its MIC is over 5 µg/mL.

Which Emax at 500 µg/mL (Penicillium digitatum; test concentration 500 μg/ml, lemon, dipped 24 h after inoculation, 14 days incubation) does the source give for `C=CCOC(Cn1ccnc1)c1ccc(Cl)cc1Cl` (stereo not drawn) [Imazalil (IIa)] here?
Its Emax at 500 µg/mL is 78%.
